Reference: the NIST ThermoML archive (doi:10.1021/je4003916)
± gives the expanded uncertainty stated by the source.

Tests used:
[1] = xn = mol fraction of the nth substance listed; settings: 101 kPa, Liquid, x2 = 0; for mass density: Vibrating tube method
[2] = 293.15 K; 101.33 kPa; Liquid; Vibrating tube method
[3] = refractive index (Na D-line) (dimensionless); xn = mol fraction of the nth substance listed; settings: 101 kPa, Liquid, Dipping refractometry (monochromatic), x2 = 0

CCCCO [butan-1-ol] + COC(=O)CCCCC(=O)OC
[1], stabinger viscometer
Settings | viscosity [mPa·s]
288.15 K | 3.375 ± 0.009
293.15 K | 2.945 ± 0.008
298.15 K | 2.581 ± 0.007
303.15 K | 2.272 ± 0.007
308.15 K | 2.008 ± 0.006
313.15 K | 1.782 ± 0.005
318.15 K | 1.587 ± 0.005
323.15 K | 1.419 ± 0.005

COC(=O)CCCCC(=O)OC [dimethyl 1,6-hexanedioate]
Settings | mass density [kg/m3]
[2] | 1061.93 ± 0.28

CCCCO [butan-1-ol] + C1CCOC1
Settings | mass density, [1] [kg/m3] | refractive index, [3] | viscosity, [1] [mPa·s]
288.15 K | 813.37 ± 0.14 | 1.4014 ± 0.0002 | 3.375 ± 0.03
293.15 K | 809.57 ± 0.14 | 1.3993 ± 0.0002 | 2.945 ± 0.027
298.15 K | 805.76 ± 0.14 | 1.3973 ± 0.0002 | 2.581 ± 0.025
303.15 K | 801.92 ± 0.14 | 1.3952 ± 0.0002 | 2.272 ± 0.023
308.15 K | 798.05 ± 0.14 | 1.3932 ± 0.0002 | 2.008 ± 0.021
313.15 K | 794.15 ± 0.14 | 1.3911 ± 0.0002 | 1.782 ± 0.019
318.15 K | 790.23 ± 0.14 | 1.389 ± 0.0002 | 1.587 ± 0.018
323.15 K | 786.24 ± 0.15 | 1.3869 ± 0.0002 | 1.419 ± 0.017
